# Laboratory results as given in patent US20080014323A1, “ANTIOXIDANT COMBINATIONS FOR USE IN FEED RATIONS TO IMPROVE ANTIOXIDANT STATUS OF RUMINANTS” (NOVUS INTERNATIONAL INC., priority 2006, published 2008).
# Assays:
# [1] = Active oxygen method (AOM): peroxide value of oils or fats after oxidative stress; type: physicochemical; settings: soybean oil subjected to oxidative stress; 500 ppm; FIG. 1
# [2] = Oil stability index (OSI) induction time; type: physicochemical; settings: soybean oil; 500 ppm; FIG. 1
smiles,measurement,setting,value
"CCOc1ccc2c(c1)C(C)=CC(C)(C)N2 [ETX, 6-ethoxy-1,2-dihydro-2,2,4-trimethylquinoline]",peroxide values,[1],about 11 meq
same,OSI induction time,[2],about 6 hr
